Here are results for five compounds from ChEMBL document CHEMBL1201862, “PubChem BioAssay data set” (2004).

Test [1] has as its target T1, Short transient receptor potential channel 4 (Mus musculus, UniProt Q9QUQ5).
T1 sequence (Q9QUQ5 whole entry): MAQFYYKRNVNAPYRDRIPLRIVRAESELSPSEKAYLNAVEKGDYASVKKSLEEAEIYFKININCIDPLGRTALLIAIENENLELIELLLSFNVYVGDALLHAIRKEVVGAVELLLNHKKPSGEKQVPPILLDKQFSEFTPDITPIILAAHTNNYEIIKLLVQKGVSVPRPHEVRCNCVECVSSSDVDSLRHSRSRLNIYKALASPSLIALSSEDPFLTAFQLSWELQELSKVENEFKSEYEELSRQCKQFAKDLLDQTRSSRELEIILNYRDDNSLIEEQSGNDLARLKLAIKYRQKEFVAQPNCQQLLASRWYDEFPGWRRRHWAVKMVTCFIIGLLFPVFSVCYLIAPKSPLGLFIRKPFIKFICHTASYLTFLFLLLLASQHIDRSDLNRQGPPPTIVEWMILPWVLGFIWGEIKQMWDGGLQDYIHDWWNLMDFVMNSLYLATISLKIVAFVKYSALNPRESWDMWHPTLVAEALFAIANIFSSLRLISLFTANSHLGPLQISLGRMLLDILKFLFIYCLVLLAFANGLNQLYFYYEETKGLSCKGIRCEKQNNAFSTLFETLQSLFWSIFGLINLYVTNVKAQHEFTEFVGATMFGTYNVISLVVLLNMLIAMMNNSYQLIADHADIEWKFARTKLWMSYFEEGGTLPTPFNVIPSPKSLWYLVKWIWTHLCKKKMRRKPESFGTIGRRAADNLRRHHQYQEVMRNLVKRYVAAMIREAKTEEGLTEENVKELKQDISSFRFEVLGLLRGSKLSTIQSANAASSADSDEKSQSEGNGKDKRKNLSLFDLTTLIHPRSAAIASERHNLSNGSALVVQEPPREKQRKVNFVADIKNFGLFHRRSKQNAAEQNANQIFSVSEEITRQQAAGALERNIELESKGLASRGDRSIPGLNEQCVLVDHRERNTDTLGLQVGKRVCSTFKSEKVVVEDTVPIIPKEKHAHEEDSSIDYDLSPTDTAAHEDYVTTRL
Description: mouse TRPC4 channel activators, dose response, cell-based, HEK293 TRPC4/mu-opioid, Fluo-4 calcium (AID 434937). The format is functional.

In test [2] the target is T2, Mannose-6-phosphate isomerase (Homo sapiens, UniProt P34949).
T2 sequence (P34949 whole entry): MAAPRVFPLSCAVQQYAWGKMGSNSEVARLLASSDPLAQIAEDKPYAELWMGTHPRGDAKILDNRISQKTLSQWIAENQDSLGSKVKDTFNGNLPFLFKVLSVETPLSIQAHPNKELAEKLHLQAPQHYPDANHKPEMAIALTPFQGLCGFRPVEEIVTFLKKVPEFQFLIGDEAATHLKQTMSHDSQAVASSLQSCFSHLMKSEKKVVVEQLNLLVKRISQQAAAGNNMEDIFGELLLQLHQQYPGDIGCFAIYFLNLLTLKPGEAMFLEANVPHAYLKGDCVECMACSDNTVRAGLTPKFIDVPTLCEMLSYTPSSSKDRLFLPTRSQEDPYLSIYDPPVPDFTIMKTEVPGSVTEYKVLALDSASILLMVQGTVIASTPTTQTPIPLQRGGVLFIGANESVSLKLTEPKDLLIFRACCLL
Description: human PMI inhibitors, high substrate, primary screen, biochemical, fluorescence intensity, high mannose 6-phosphate (AID 1220).

In test [3] the target is Serine/threonine-protein phosphatase (Homo sapiens, UniProt Q9BPW0). Briefly: PP5 phosphatase inhibitors, dose response, biochemical, fluorescence (AID 2395).
Test [4] deals with T3, Tyrosine-protein phosphatase non-receptor type 12 (Homo sapiens, UniProt Q05209).
T3 sequence (Q05209 whole entry): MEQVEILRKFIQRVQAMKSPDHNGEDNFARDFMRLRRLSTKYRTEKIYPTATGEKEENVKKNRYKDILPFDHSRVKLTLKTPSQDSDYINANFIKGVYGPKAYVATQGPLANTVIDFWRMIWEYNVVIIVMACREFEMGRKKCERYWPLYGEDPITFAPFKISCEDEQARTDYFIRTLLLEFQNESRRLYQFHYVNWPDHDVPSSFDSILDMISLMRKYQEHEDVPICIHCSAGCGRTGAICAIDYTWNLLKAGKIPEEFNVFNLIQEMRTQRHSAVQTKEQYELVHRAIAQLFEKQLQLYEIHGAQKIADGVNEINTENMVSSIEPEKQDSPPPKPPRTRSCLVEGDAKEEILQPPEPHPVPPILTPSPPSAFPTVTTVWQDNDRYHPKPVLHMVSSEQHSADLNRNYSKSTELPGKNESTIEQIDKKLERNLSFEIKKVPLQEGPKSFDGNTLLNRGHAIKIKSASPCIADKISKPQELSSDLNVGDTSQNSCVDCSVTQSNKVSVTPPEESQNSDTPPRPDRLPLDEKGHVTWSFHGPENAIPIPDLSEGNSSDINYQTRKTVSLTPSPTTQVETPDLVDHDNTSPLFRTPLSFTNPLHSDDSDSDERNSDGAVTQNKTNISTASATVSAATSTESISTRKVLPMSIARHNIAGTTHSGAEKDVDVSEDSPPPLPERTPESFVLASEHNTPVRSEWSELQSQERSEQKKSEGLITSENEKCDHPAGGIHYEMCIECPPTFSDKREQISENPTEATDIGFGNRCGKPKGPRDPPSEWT
Description: SAR Selectivity Analysis of small molecule inhibitors of PEST using pCAP in a fluorescence assay. [Related pubchem assays (depositor defined):AID1779, AID1784, AID2135]. The format is functional.

Test [5] addresses T4, Tyrosine-protein phosphatase non-receptor type 7 (Homo sapiens, UniProt P35236).
T4 sequence (P35236 whole entry): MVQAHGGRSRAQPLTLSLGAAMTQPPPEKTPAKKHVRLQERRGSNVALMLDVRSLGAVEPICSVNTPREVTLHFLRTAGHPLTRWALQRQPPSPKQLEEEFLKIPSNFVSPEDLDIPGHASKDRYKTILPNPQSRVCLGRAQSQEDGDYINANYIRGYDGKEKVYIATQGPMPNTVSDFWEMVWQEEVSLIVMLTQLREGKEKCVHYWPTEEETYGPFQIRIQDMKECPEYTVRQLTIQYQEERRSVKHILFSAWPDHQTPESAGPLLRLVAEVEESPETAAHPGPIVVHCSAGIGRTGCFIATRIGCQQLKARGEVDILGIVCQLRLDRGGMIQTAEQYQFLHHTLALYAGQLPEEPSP
Description: HePTP (PTPN7) phosphatase inhibitor potency, SAR follow-up, biochemical, set 2 (AID 449736). The format is functional.

Test [6] addresses T5, Protein Tat (Human immunodeficiency virus type 1 group M subtype B (isolate HXB2)(HIV-1), UniProt P04608).
T5 sequence (P04608 whole entry): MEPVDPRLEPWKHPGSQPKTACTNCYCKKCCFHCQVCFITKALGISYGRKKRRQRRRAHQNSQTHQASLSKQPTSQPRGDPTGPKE
The format is functional.

“And” between values parts separate entries of the source, which are not always exact repeats. Identical values can stand only once. The source made the active and inactive calls.

Chain of Serine/threonine-protein phosphatase (Q9BPW0 whole entry): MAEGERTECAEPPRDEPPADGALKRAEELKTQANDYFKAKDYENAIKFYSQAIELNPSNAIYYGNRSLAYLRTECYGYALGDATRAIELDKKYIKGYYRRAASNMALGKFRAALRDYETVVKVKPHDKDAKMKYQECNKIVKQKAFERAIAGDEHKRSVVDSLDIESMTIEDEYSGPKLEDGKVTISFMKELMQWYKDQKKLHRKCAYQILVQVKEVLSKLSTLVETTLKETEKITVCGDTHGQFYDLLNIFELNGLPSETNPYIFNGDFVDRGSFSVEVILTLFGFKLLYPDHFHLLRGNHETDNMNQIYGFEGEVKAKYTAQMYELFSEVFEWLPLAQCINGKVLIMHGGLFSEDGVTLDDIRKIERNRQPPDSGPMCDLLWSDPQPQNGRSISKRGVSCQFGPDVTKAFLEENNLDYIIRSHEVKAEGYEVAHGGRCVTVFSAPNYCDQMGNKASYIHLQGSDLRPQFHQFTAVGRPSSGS

With `CCN1/C(=C/c2ccc3cc(C)ccc3[n+]2CC)Sc2cc(C)c(C)cc21`, in test [1], the half-maximal effective concentration (EC50) is 11.9 µM (active). Consider `Cc1oc2c(c1C(=O)c1ccccc1)C(=O)C(=O)c1ccccc1-2`, for which the IC50 in test [2] is listed as > 50 µM (not active). Turning to `O=C1CCCC2=C1C1(O)C(=O)c3ccccc3C1(O)O2` (stereo unspecified), the IC50 in test [3] was > 0.828 µM (active). For `O=C(O)COc1ccc(/C=N/NC(=O)c2ccc(-c3csc(Nc4ccc(Cl)cc4)n3)cc2)cc1`, the IC50 in test [4] was 334 nM (active) and 325 nM (active); in test [5], 0.193 µM (active). In the case of `COc1cc(NCCCNC(C)C)c2nccc(C)c2c1`, in test [6], the IC50 is > 100 µM (active).

One may read the EC50 as the concentration that produces a half-maximal response. One may read the IC50 as the point on the concentration scale where inhibition reaches its midpoint.
